Columns and labels:
[1] = test system: LS174T colon cancer cell xenografts; assay: In vivo antineoplastic activity and gross toxicity in LS174T xenografts
Protocol: Mouse studies were carried out with approval from the Institutional Animal Care and Use Committee of the University of Kentucky (2020-3531). All methods were performed in accordance with the relevant guidelines and regulations according to protocols. […] After tumors were established, mice were randomized according to tumor volume and divided into groups for treatments (five mice in each group, two tumors on each mouse).
The in vivo evaluation of ISQ-1 and BI2536 followed the approved protocol. After tumors were established, ISQ-1 was formulated in a mixture of Tween-80 (5%), DMSO (10%), PEG400 (25%) and PBS (60%) and was intraperitoneally administered to the ISQ-1 group at a daily dose of 20 mg/kg mouse body weight. The first day of treatment was set as day 0. At days 0, 4, and 7, BI2536 dissolved in 0.1 N HCl and then diluted 5-fold using 0.9% NaCl was given via gavage to the B12536 group. Mice in combination therapy group were treated with both ISQ-1 and BI2536 following aforementioned dosing schedules. At day 11 treatment was ceased and mice were sacrificed. Tumors and mouse weights were measured, and tumor volumes were calculated as Length×width^2/2.
Major biological assays were performed at least twice. Data were shown as mean SEM. For the mice study, five mice with two tumors on the lower flanks of each mouse were used in each treatment group. Sizes of the two tumors from each mouse were averaged, standardized by the tumor size on day 0, and log-transformed. ANOVA with Tukey's HSD test was used to compare the tumor size at the end of the study (day 11) between the combination therapy of ISQ-1 and B12536 and each single compound as well as the control. The equal variance assumption of ANOVA was assessed by Bartlett's test. All statistical studies were overseen in collaboration with a statistician in the University of Kentucky's Markey Cancer Center.

[2] = cited from earlier work
[3] = test system: mitochondrial ETC (electron transport chain); assay: Seahorse assay (OCR) in Beas-2B cells; assay type: cell-based
Protocol: Seahorse assays were carried out following a published procedure (25). Briefly, 2.5×10^4 cells in 80 μL of medium were seeded in XF96 Cell Culture microplate for all experiments. On the next day, cell culture media were replaced with Seahorse XF modified media. Cells were treated with 1 μM of oligomycin A, 1.0 μM FCCP and mixture of 1.0 μM of rotenone and 1.0 μM of antimycin A in standard mitochondrial stress test conditions. To determine the uncoupler effects, FCCP was replaced with an equal volume of DMSO, or a compound to be tested in DMSO solution.

[4] = test system: mitochondrial ETC complex I; assay: Mitochondrial ETC complex activity measurements using PMP-permeabilized cells; assay type: cell-based; conditions: pyruvate substrate
Protocol: Mitochondrial ETC complex activity measurements were taken using the Agilent Seahorse Assay with XF PMP (Agilent, Santa Clara, CA) following manufacturer's instructions. Adherent monolayer cells were gently washed with mitochondrial assay solution (MAS) (220 mM mannitol, 70 mM sucrose, 10 mM KH2PO4, 5 mM MgCl2, 2 mM HEPES, 1 mM EGTA, and 0.2% (w/v) fatty acid free BSA) and cell growth media was replaced with MAS supplemented with 4 mM adenosine diphosphate (ADP), 10 mM pyruvate, and 1 nM PMP. Following calibration, the assay was immediately performed by measuring baseline with two cycles of 0.5 min mixing, 0.5 min waiting, and 2 min measuring. After baseline measurements, sequential injections of DMSO, compounds of interest or 2 μM rotenone, 10 mM succinate, 2 μM antimycin A, and a combination of 10 mM ascorbate and 100 μM TMPD were also performed with each followed by two cycles of 0.5 min mixing, 0.5 min waiting, and 2 min measuring. Data were then normalized to cell counts using the Biotek Cytation 1 (BioTek Instruments, Winooski, VT, USA).

LS174T cells = assay: Cell proliferation inhibition assay (5 days, cell counting); assay type: cell-based
Protocol: Cell proliferation inhibition assays were done following a previous report (32). Cancer cells were seeded into 24-well plates at a density of 20,000 cells per well in 1 mL of culture medium and were cultured overnight at 37° C. Compounds and the vehicle control (DMSO) were added to the cells. After 5 days, the medium was removed, and 100 μL of trypsin was added. The cells were resuspended in phosphate-buffered saline (PBS) and were counted by Vi-CELL XR 2.03 (Beckman Coulter, Inc. USA). The ratio R of the number of viable cells in the compound treatment group to the number of viable cells in DMSO treatment group was taken as relative growth, and the percentage growth inhibition was calculated as (1−R)*100.

[5] = test system: Wnt signaling target genes c-Myc and axin2; assay: Western blotting of Wnt signaling target genes in LS174T cells; assay type: cell-based; conditions: 24 hours
Protocol: (§1) Western blotting were performed according to previous procedures (25). Cells were split into 12-well plates. After 24 hours, compounds at indicated final concentrations were added to each well for another 24 hours unless otherwise noted. DMSO was used as a control. Cells were lysed in the appropriate volume of lysis buffer: 50 mM HEPES, 100 mM NaCl, 2 mM EDTA, 1% (v/v) glycerol, 50 mM NaF, 1 mM Na3VO4, 1% (v/v) Triton X-100, with protease inhibitors. Cell lysates were centrifuged, and supernatants were mixed with 6× protein loading buffer and boiled. The obtained samples were analyzed with standard western blotting methods with indicated antibodies.

Plk1 = assay: Western blotting of cell signaling pathways in LS174T cells; assay type: cell-based; conditions: LS174T colon cancer cells, 24 hours
Protocol: as §1

AMPK = AMPK activation (western blotting, pAMPK/pACC) in LS174T cells; assay type: cell-based
Protocol: as §1

## CC[C@@H]1C(=O)N(C)c2cnc(Nc3ccc(C(=O)NC4CCN(C)CC4)cc3OC)nc2N1C1CCCC1 [BI2536, reference compound]
[1]; mouse, in vivo
  gross toxicities on the basis of mouse weight measurements: No gross toxicities
[1]; nude mice, ISQ-1 20 mg/kg daily i.p., BI2536 30 mg/kg twice a week by gavage, day 11
  tumor growth of LS174T xenografts: inhibited tumor growth but did not induce tumor regression
[2]; Phase II
  antitumor activity in Phase II clinical trials: only limited antitumor activity
[2]; phase I
  safety in phase I clinical trials: safe

## Cn1cc(-c2cc3ccc(N4CCC(C#N)CC4)cc3nc2N)c2ccccc21 [ISQ-7, 1-(2-Amino-3-(1-methyl-1H-indol-3-yl)quinolin-7-yl)piperidine-4-carbonitrile]
[3]
  ETC complex V inhibition (oligomycin replaced with compound): did not inhibit ETC complex V
  uncoupler effect (FCCP replaced with compound): no uncouplers
[4]
  ETC complex I inhibition (pyruvate/NADH-linked respiration): inhibited complex I
LS174T cells; 500 nM
  percentage inhibition of LS174T cell proliferation at 500 nM, compared among ISQs (FIG. 2B): comparable to the N,N-dimethylamino group in ISQ-1
LS174T cells; Homo sapiens, LS174T, 120 h, 62 nM, 5 days
  inhibition at 0.062 µM: 19 ± 5.5%
LS174T cells; Homo sapiens, LS174T, 120 h, 125 nM, 5 days
  inhibition at 0.125 µM: 89 ± 0.2%
LS174T cells; Homo sapiens, LS174T, 120 h, 250 nM, 5 days
  inhibition at 0.25 µM: 98 ± 0.6%
LS174T cells; Homo sapiens, LS174T, 120 h, 500 nM, 5 days
  inhibition at 0.5 µM: 97 ± 0.7%
LS174T cells; Homo sapiens, dose response studies, LS174T, read-out: IC50 values in cell proliferation assays
  IC50: ~100 nM
[5]
  effect on Wnt signaling target genes c-Myc and axin2: strongly inhibited
Plk1
  Plk1 expression upon drug treatment: induced
AMPK
  AMPK activation: activated AMPK

Source: US12630532B2, “Indole-substituted quinolines and their combination with Plk1 inhibitors for the treatment of cancer” (UNIVERSITY OF KENTUCKY RESEARCH FOUNDATION, priority 2021, dated 2026)
